In patent US20060069132A1, “Azolecarboxamide herbicides” (priority 2004, published 2006):
Read-outs that look alike come from different tables or passages of the source.

What was measured:
wheat = experiment: Test B postemergence herbicide test; assay type: in vivo, Triticum aestivum; settings: Triticum aestivum, post-emergence, 336 h, postemergence, read-out: Wheat plant response rating
Summary of the method: (§1)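 Scale 0–100: zero equals no visible effect, 100 complete control, judged by eye relative to controls. Timing: 13 to 15 days in greenhouse post-treatment. Growth stage at spraying: two leaves (paddy) or one to four leaves, 2–18 cm (postemergence).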

corn = experiment: Test B pre-/postemergence herbicide test; assay type: in vivo, Zea mays; settings: Zea mays; for plant injury at 125 g/ha: 125 g ai/ha
Summary of the method: (§2)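 Greenhouse pot assay with simultaneous preemergence (treated seed) and postemergence (2–18 cm seedlings) applications of surfactant-containing, non-phytotoxic solvent formulations. Response scored visually 13–15 days later on a 0–100 scale, 100 meaning complete control.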

ducksalad = experiment: Test B flooded paddy test; assay type: in vivo, Heteranthera limosa; settings: Heteranthera limosa, 336 h, 1000 g ai/ha, scale 0 to 100 (0 no effect, 100 complete control), read-out: Ducksalad plant response rating
Summary of the method: (§3)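 Postemergence plants were sprayed with formulated test chemicals at 2 to 18 cm height (1- to 4-leaf stage); paddy species were grown to the 2-leaf stage. After 13 to 15 days in a greenhouse, injury was rated visually against untreated controls on a 0–100 scale (0 = no effect, 100 = complete control).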

morningglory = experiment: Test B pre-/postemergence herbicide test; assay type: in vivo, Ipomoea coccinea; settings: Ipomoea, 336 h; for pest or weed control at 125 g/ha: 125 g ai/ha; for pest or weed control at 500 g/ha: 500 g ai/ha
Summary of the method: (§4)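 Seeds were planted and treated preemergence with compounds formulated in a non-phytotoxic solvent mixture containing surfactant, while plants at the 1- to 4-leaf stage (2 to 18 cm) received postemergence sprays. Flooded paddy plants were grown to the 2-leaf stage. After 13 to 15 days in a greenhouse, injury was visually rated 0–100 against untreated controls.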

cocklebur = experiment: Test B pre-/postemergence herbicide test; assay type: in vivo, Xanthium strumarium; settings: Xanthium strumarium; for pest or weed control at 125 g/ha: 125 g ai/ha; for pest or weed control at 500 g/ha: 500 g ai/ha
Summary of the method: as §4

pigweed = experiment: Test B pre-/postemergence herbicide test; assay type: in vivo, Amaranthus retroflexus; settings: Amaranthus retroflexus, 336 h; for pest or weed control at 125 g/ha: 125 g ai/ha; for pest or weed control at 500 g/ha: 500 g ai/ha
Summary of the method: as §2

barnyardgrass [1] = experiment: Test B flooded paddy test; assay type: in vivo, Echinochloa crus-galli; settings: Echinochloa crus-galli, 336 h, 1000 g ai/ha, scale 0 to 100 (0 no effect, 100 complete control), read-out: Barnyardgrass plant response rating
Summary of the method: as §3

velvetleaf = experiment: Test B pre-/postemergence herbicide test; assay type: in vivo, Abutilon theophrasti; settings: Abutilon theophrasti, 336 h; for pest or weed control at 125 g/ha: 125 g ai/ha; for pest or weed control at 500 g/ha: 500 g ai/ha
Summary of the method: as §2

giant foxtail = experiment: Test B pre-/postemergence herbicide test; assay type: in vivo, Setaria faberi; settings: Setaria faberi, 336 h; for pest or weed control at 125 g/ha: 125 g ai/ha; for pest or weed control at 500 g/ha: 500 g ai/ha
Summary of the method: as §2

lambsquarters = experiment: Test B pre-/postemergence herbicide test; assay type: in vivo, Chenopodium album; settings: Chenopodium album, 336 h; for pest or weed control at 125 g/ha: 125 g ai/ha; for pest or weed control at 500 g/ha: 500 g ai/ha
Summary of the method: as §2

barnyardgrass [2] = experiment: Test B pre-/postemergence herbicide test; assay type: in vivo, Echinochloa crus-galli; settings: Echinochloa crus-galli; for pest or weed control at 125 g/ha: 125 g ai/ha; for pest or weed control at 500 g/ha: 500 g ai/ha
Summary of the method: as §4

[3] = system: small flower umbrella sedge; experiment: Test B flooded paddy test; assay type: in vivo, Cyperus difformis; settings: Cyperus difformis, 336 h, 1000 g ai/ha, scale 0 to 100 (0 no effect, 100 complete control), read-out: Sedge, Umbrella plant response rating
Summary of the method: as §3

rice = experiment: Test B flooded paddy test; assay type: in vivo, Oryza sativa; settings: Oryza sativa, 336 h, 1000 g ai/ha, scale 0 to 100 (0 no effect, 100 complete control), read-out: Rice plant response rating
Summary of the method: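 Greenhouse test; postemergence application to plants at 1–4 leaves (2–18 cm); paddy species at 2 leaves; evaluated visually vs controls at 13–15 days; scale 0–100 (100 = complete control).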

wild oat = experiment: Test B postemergence herbicide test; assay type: in vivo, Avena fatua; settings: Avena fatua, post-emergence, 336 h, postemergence, read-out: Oat, Wild plant response rating
Summary of the method: as §1

blackgrass = experiment: Test B postemergence herbicide test; assay type: in vivo, Alopecurus myosuroides; settings: Alopecurus myosuroides, post-emergence, 336 h, postemergence, visual rating, scale 0 (no effect) to 100 (complete control), read-out: Blackgrass plant response rating
Summary of the method: as §3

[4] = 125 g ai/ha, visual rating, scale 0 (no effect) to 100 (complete control)
[5] = 500 g ai/ha, scale 0 to 100, 0 is no effect, 100 is complete control
[6] = post-emergence, postemergence, visual rating, scale 0 (no effect) to 100 (complete control), read-out: Cocklebur plant response rating
[7] = post-emergence, postemergence, visual rating, scale 0 (no effect) to 100 (complete control), read-out: Barnyardgrass plant response rating

CCN1N=C(C(C)(C)C)CC1C(=O)Nc1cc(C(=O)N(C)C)ccc1F (stereo not drawn) [Compound 268, N-[5-[(dimethylamino)carbonyl]-2-fluorophenyl]-3-(1,1-dimethylethyl)-1-ethyl-4,5-dihydro-1H-pyrazole-5-carboxamide]
100%: pest or weed control at 125 g/ha (pigweed; pre-emergence, 0 = no effect, 100 = complete control, read-out: Pigweed plant response rating (0 to 100 scale)) | pest or weed control at 500 g/ha (pigweed; pre-emergence, visual rating, 0 = no effect, 100 = complete control, read-out: Plant response rating, Pigweed) | pest or weed control at 125 g/ha (velvetleaf; pre-emergence, 0 = no effect, 100 = complete control, read-out: Velvetleaf plant response rating (0 to 100 scale)) | pest or weed control at 500 g/ha (velvetleaf; pre-emergence, visual rating, 0 = no effect, 100 = complete control, read-out: Plant response rating, Velvetleaf) | pest or weed control at 125 g/ha (giant foxtail; pre-emergence, 0 = no effect, 100 = complete control, read-out: Foxtail, Giant plant response rating (0 to 100 scale)) | pest or weed control at 500 g/ha (giant foxtail; pre-emergence, visual rating, 0 = no effect, 100 = complete control, read-out: Plant response rating, Foxtail, Giant) | pest or weed control at 125 g/ha (lambsquarters; pre-emergence, 0 = no effect, 100 = complete control, read-out: Lambsquarters plant response rating (0 to 100 scale)) | pest or weed control at 500 g/ha (lambsquarters; pre-emergence, visual rating, 0 = no effect, 100 = complete control, read-out: Plant response rating, Lambsquarters) | pest or weed control at 125 g/ha (barnyardgrass [2]; pre-emergence, 0 = no effect, 100 = complete control, read-out: Barnyardgrass plant response rating (0 to 100 scale)) | pest or weed control at 500 g/ha (barnyardgrass [2]; pre-emergence, visual rating, 0 = no effect, 100 = complete control, read-out: Plant response rating, Barnyardgrass)
50%: pest or weed control at 500 g/ha (cocklebur; [6]) | pest or weed control at 500 g/ha (pigweed; post-emergence, postemergence, scale 0 to 100, 0 is no effect, 100 is complete control, read-out: Pigweed plant response rating) | pest or weed control at 500 g/ha (wild oat; [5]) | pest or weed control at 500 g/ha (blackgrass; 500 g ai/ha)
10%: pest or weed control at 125 g/ha (morningglory; post-emergence, postemergence, visual rating, scale 0 (no effect) to 100 (complete control), read-out: Morningglory plant response rating) | pest or weed control at 125 g/ha (giant foxtail; post-emergence, postemergence, visual rating, scale 0 (no effect) to 100 (complete control), read-out: Foxtail, Giant plant response rating)
60%: pest or weed control at 500 g/ha (velvetleaf; post-emergence, postemergence, scale 0 to 100, 0 is no effect, 100 is complete control, read-out: Velvetleaf plant response rating) | pest or weed control at 125 g/ha (lambsquarters; post-emergence, postemergence, visual rating, scale 0 (no effect) to 100 (complete control), read-out: Lambsquarters plant response rating)
20%: plant injury at 125 g/ha (corn; post-emergence, postemergence, visual rating, scale 0 (no effect) to 100 (complete control), read-out: Corn plant response rating) | pest or weed control at 500 g/ha (morningglory; post-emergence, postemergence, scale 0 to 100, 0 is no effect, 100 is complete control, read-out: Morningglory plant response rating) | pest or weed control at 500 g/ha (morningglory; pre-emergence, visual rating, 0 = no effect, 100 = complete control, read-out: Plant response rating, Morningglory) | pest or weed control at 125 g/ha (cocklebur; [6]) | pest or weed control at 125 g/ha (pigweed; post-emergence, postemergence, visual rating, scale 0 (no effect) to 100 (complete control), read-out: Pigweed plant response rating) | pest or weed control at 125 g/ha (velvetleaf; post-emergence, postemergence, visual rating, scale 0 (no effect) to 100 (complete control), read-out: Velvetleaf plant response rating) | pest or weed control at 500 g/ha (giant foxtail; post-emergence, postemergence, scale 0 to 100, 0 is no effect, 100 is complete control, read-out: Foxtail, Giant plant response rating)
90%: Corn plant response rating (crop injury, 0 = no effect, 100 = complete kill) at 500 g/ha (corn; pre-emergence, 500 g ai/ha, visual rating, 0 = no effect, 100 = complete control) | pest or weed control at 1000 g/ha (ducksalad) | pest or weed control at 500 g/ha (cocklebur; pre-emergence, visual rating, 0 = no effect, 100 = complete control, read-out: Plant response rating, Cocklebur) | pest or weed control at 1000 g/ha (barnyardgrass [1]) | plant injury at 1000 g/ha (rice)
80%: plant injury at 125 g/ha (corn; pre-emergence, 0 = no effect, 100 = complete control, read-out: Corn plant response rating (0 to 100 scale)) | pest or weed control at 125 g/ha (cocklebur; pre-emergence, 0 = no effect, 100 = complete control, read-out: Cocklebur plant response rating (0 to 100 scale)) | pest or weed control at 1000 g/ha [3]
30%: plant injury at 125 g/ha (wheat; [4]) | plant injury at 500 g/ha (wheat; [5]) | plant injury at 500 g/ha (corn; post-emergence, postemergence, 500 g ai/ha, scale 0 to 100, 0 is no effect, 100 is complete control, read-out: Corn plant response rating) | pest or weed control at 500 g/ha (barnyardgrass [2]; [7]) | pest or weed control at 125 g/ha (wild oat; [4]) | pest or weed control at 125 g/ha (blackgrass; 125 g ai/ha)
70%: pest or weed control at 500 g/ha (lambsquarters; post-emergence, postemergence, scale 0 to 100, 0 is no effect, 100 is complete control, read-out: Lambsquarters plant response rating)
0%: pest or weed control at 125 g/ha (morningglory; pre-emergence, 0 = no effect, 100 = complete control, read-out: Morningglory plant response rating (0 to 100 scale)) | pest or weed control at 125 g/ha (barnyardgrass [2]; [7])
